Experimental data as given in patent publication US20230365592A1 (Agios Pharmaceuticals, Inc., priority 2022, published 2023).

Molecular target: T1, human PAH with the R408W mutation (Homo sapiens, UniProt P00439, R408W)
T1 construct: expressed in transfected cells
T1 sequence (P00439 1-452 R408W): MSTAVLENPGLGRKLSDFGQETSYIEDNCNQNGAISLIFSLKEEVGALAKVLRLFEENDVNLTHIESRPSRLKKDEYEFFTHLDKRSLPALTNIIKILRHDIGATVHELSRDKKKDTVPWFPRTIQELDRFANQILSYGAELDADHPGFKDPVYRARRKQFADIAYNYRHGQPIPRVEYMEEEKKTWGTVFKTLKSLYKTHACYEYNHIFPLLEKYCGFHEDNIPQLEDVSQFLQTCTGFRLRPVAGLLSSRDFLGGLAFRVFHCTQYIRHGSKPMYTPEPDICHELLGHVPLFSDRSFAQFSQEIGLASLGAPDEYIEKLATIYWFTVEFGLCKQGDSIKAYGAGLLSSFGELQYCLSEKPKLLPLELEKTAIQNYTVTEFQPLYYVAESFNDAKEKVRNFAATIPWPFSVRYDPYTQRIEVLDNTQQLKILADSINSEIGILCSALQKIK
Assay: Cell Based Phenylalanine Flux Assay;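 further: after compound treatment, cells received sepiapterin plus isotope-labelled Phenylalanine for 4 hours, then labelled Tyrosine in the medium was quantified, 10-point 2-fold dilution series run in duplicate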
Conditions: A375 cells expressing human PAH R408W; 24 hrs compound incubation; 13C-Tyrosine by LC-MS; average where tested multiple times; read-out: AC50

| Compound | AC50 |
| --- | --- |
| Cc1cccnc1-c1nnc(N2CCc3[nH]cnc3[C@H]2c2cc3cccc(C(F)(F)F)n3n2)o1 [Example 2336, (S)-2-(3-methylpyridin-2-yl)-5-(4-(7-(trifluoromethyl)pyrazolo[1,5-a]pyridin-2-yl)-1,4,6,7-tetrahydro-5H-imidazo[4,5-c]pyridin-5-yl)-1,3,4-oxadiazole] | 500 to 1000 nM |
| FC(F)(F)Oc1cccn2nc([C@@H]3c4nc[nH]c4CCN3c3ccc(C(F)(F)F)cn3)cc12 [Example 2348, (S)-4-(4-(trifluoromethoxy)pyrazolo[1,5-a]pyridin-2-yl)-5-(5-(trifluoromethyl)pyridin-2-yl)-4,5,6,7-tetrahydro-1H-imidazo[4,5-c]pyridine] | 500 to 1000 nM |
| Cc1cccc(-c2nnc(N3CCc4[nH]cnc4[C@@H]3c3cc4c(C5CC5)cccn4n3)o2)n1 [Example 2358, (R)-2-(4-(4-cyclopropylpyrazolo[1,5-a]pyridin-2-yl)-1,4,6,7-tetrahydro-5H-imidazo[4,5-c]pyridin-5-yl)-5-(6-methylpyridin-2-yl)-1,3,4-oxadiazole] | > 5000 nM |
| Cc1cccc(-c2nnc(N3CCc4[nH]cnc4[C@H]3c3cc4c(C5CC5)cccn4n3)o2)n1 [Example 2359, (S)-2-(4-(4-cyclopropylpyrazolo[1,5-a]pyridin-2-yl)-1,4,6,7-tetrahydro-5H-imidazo[4,5-c]pyridin-5-yl)-5-(6-methylpyridin-2-yl)-1,3,4-oxadiazole] | 500 to 1000 nM |
| O=C(c1nnc(-c2ccc(F)cn2)o1)N1CCc2[nH]cnc2[C@@H]1c1cc2ccccn2n1 [Example 2364, (R)-(5-(5-fluoropyridin-2-yl)-1,3,4-oxadiazol-2-yl)(4-(pyrazolo[1,5-a]pyridin-2-yl)-6,7-dihydro-1H-imidazo[4,5-c]pyridin-5(4H)-yl)methanone] | > 5000 nM |
| O=C(c1cnn(CC(F)(F)F)c1C(F)F)N1CCc2[nH]cnc2[C@H]1c1cc2ccccn2n1 [Example 2368, (S)-(5-(difluoromethyl)-1-(2,2,2-trifluoroethyl)-1H-pyrazol-4-yl)(4-(pyrazolo[1,5-a]pyridin-2-yl)-6,7-dihydro-1H-imidazo[4,5-c]pyridin-5(4H)-yl)methanone] | 1000 to 5000 nM |
| O=C(c1cnn(CC(F)(F)F)c1C(F)F)N1CCc2[nH]cnc2[C@@H]1c1cc2ccccn2n1 [Example 2369, (R)-(5-(difluoromethyl)-1-(2,2,2-trifluoroethyl)-1H-pyrazol-4-yl)(4-(pyrazolo[1,5-a]pyridin-2-yl)-6,7-dihydro-1H-imidazo[4,5-c]pyridin-5(4H)-yl)methanone] | > 5000 nM |
| Nc1cc(C(=O)N2CCc3[nH]cnc3[C@H]2c2cc3ccccn3n2)n(C(F)F)n1 [Example 2370, (S)-(3-amino-1-(difluoromethyl)-1H-pyrazol-5-yl)(4-(pyrazolo[1,5-a]pyridin-2-yl)-6,7-dihydro-1H-imidazo[4,5-c]pyridin-5(4H)-yl)methanone] | 1000 to 5000 nM |
| Cn1nc(C(F)(F)F)nc1C(=O)N1CCc2[nH]cnc2[C@H]1c1cc2ccccn2n1 [Example 2372, (S)-(1-methyl-3-(trifluoromethyl)-1H-1,2,4-triazol-5-yl)(4-(pyrazolo[1,5-a]pyridin-2-yl)-6,7-dihydro-1H-imidazo[4,5-c]pyridin-5(4H)-yl)methanone] | 1000 to 5000 nM |
| CC(C)(O)c1nnc(C(=O)N2CCc3[nH]cnc3[C@H]2c2cc3c(Cl)cccn3n2)o1 [Example 2378, (S)-(4-(4-chloropyrazolo[1,5-a]pyridin-2-yl)-6,7-dihydro-1H-imidazo[4,5-c]pyridin-5(4H)-yl)(5-(2-hydroxypropan-2-yl)-1,3,4-oxadiazol-2-yl)methanone] | 1000 to 5000 nM |
| Cc1ccc2cc([C@@H]3c4nc[nH]c4CCN3C(=O)c3nnc(-c4cnn(C)c4)o3)nn2c1 [Example 2380, (S)-(5-(1-methyl-1H-pyrazol-4-yl)-1,3,4-oxadiazol-2-yl)(4-(6-methylpyrazolo[1,5-a]pyridin-2-yl)-6,7-dihydro-1H-imidazo[4,5-c]pyridin-5(4H)-yl)methanone] | 1000 to 5000 nM |
| CC(C)(O)c1ncc(C(=O)N2CCc3[nH]cnc3[C@H]2c2cc3c(F)cccn3n2)o1 [Example 2382, (S)-(4-(4-fluoropyrazolo[1,5-a]pyridin-2-yl)-6,7-dihydro-1H-imidazo[4,5-c]pyridin-5(4H)-yl)(2-(2-hydroxypropan-2-yl)oxazol-5-yl)methanone] | 1000 to 5000 nM |
| Cc1ccn2nc([C@@H]3c4nc[nH]c4CCN3C(=O)c3nnc(-c4ccccn4)o3)cc2c1 [Example 2384, (S)-(4-(5-methylpyrazolo[1,5-a]pyridin-2-yl)-6,7-dihydro-1H-imidazo[4,5-c]pyridin-5(4H)-yl)(5-(pyridin-2-yl)-1,3,4-oxadiazol-2-yl)methanone] | 1000 to 5000 nM |

Continued, values first:

| AC50 | Compound |
| --- | --- |
| > 5000 nM | Cc1ncccc1-c1nnc(N2CCc3[nH]cnc3[C@@H]2c2cc3cccc(C)n3n2)o1 [Example 2333, (R)-2-(4-(7-methylpyrazolo[1,5-a]pyridin-2-yl)-1,4,6,7-tetrahydro-5H-imidazo[4,5-c]pyridin-5-yl)-5-(2-methylpyridin-3-yl)-1,3,4-oxadiazole] |
| 500 to 1000 nM | CC(C)c1cccn2nc([C@@H]3c4nc[nH]c4CCN3c3nnc(-c4cccnc4F)o3)cc12 [Example 2335, (S)-2-(2-fluoropyridin-3-yl)-5-(4-(4-isopropylpyrazolo[1,5-a]pyridin-2-yl)-1,4,6,7-tetrahydro-5H-imidazo[4,5-c]pyridin-5-yl)-1,3,4-oxadiazole] |
| 500 to 1000 nM | Fc1cccnc1-c1nnc(N2CCc3[nH]cnc3[C@H]2c2cc3ccccn3n2)o1 [Example 2338, (S)-2-(3-fluoropyridin-2-yl)-5-(4-(pyrazolo[1,5-a]pyridin-2-yl)-1,4,6,7-tetrahydro-5H-imidazo[4,5-c]pyridin-5-yl)-1,3,4-oxadiazole] |
| > 5000 nM | Fc1cccnc1-c1nnc(N2CCc3[nH]cnc3[C@@H]2c2cc3ccccn3n2)o1 [Example 2339, (R)-2-(3-fluoropyridin-2-yl)-5-(4-(pyrazolo[1,5-a]pyridin-2-yl)-1,4,6,7-tetrahydro-5H-imidazo[4,5-c]pyridin-5-yl)-1,3,4-oxadiazole] |
| > 5000 nM | Cc1cccn2nc([C@H]3c4nc[nH]c4CCN3c3nnc(-c4ncccc4F)o3)cc12 [Example 2340, (R)-2-(3-fluoropyridin-2-yl)-5-(4-(4-methylpyrazolo[1,5-a]pyridin-2-yl)-1,4,6,7-tetrahydro-5H-imidazo[4,5-c]pyridin-5-yl)-1,3,4-oxadiazole] |
| 500 to 1000 nM | Cc1cccn2nc([C@@H]3c4nc[nH]c4CCN3c3nnc(-c4ncccc4F)o3)cc12 [Example 2341, (S)-2-(3-fluoropyridin-2-yl)-5-(4-(4-methylpyrazolo[1,5-a]pyridin-2-yl)-1,4,6,7-tetrahydro-5H-imidazo[4,5-c]pyridin-5-yl)-1,3,4-oxadiazole] |
| 500 to 1000 nM | Cc1cccc(-c2nnc(N3CCc4[nH]cnc4[C@H]3c3cc4c(C)cccn4n3)o2)n1 [Example 2345, (S)-2-(4-(4-methylpyrazolo[1,5-a]pyridin-2-yl)-1,4,6,7-tetrahydro-5H-imidazo[4,5-c]pyridin-5-yl)-5-(6-methylpyridin-2-yl)-1,3,4-oxadiazole] |
| 500 to 1000 nM | Cc1cccc(-c2nnc(N3CCc4[nH]cnc4[C@H]3c3cc4c(C(F)F)cccn4n3)o2)n1 [Example 2347, (S)-2-(4-(4-(difluoromethyl)pyrazolo[1,5-a]pyridin-2-yl)-1,4,6,7-tetrahydro-5H-imidazo[4,5-c]pyridin-5-yl)-5-(6-methylpyridin-2-yl)-1,3,4-oxadiazole] |
| 500 to 1000 nM | Fc1ncccc1-c1nnc(N2CCc3[nH]cnc3[C@H]2c2cc3c(Cl)cccn3n2)o1 [Example 2350, (S)-2-(4-(4-chloropyrazolo[1,5-a]pyridin-2-yl)-1,4,6,7-tetrahydro-5H-imidazo[4,5-c]pyridin-5-yl)-5-(2-fluoropyridin-3-yl)-1,3,4-oxadiazole] |
| > 5000 nM | CC(C)c1cccn2nc([C@H]3c4nc[nH]c4CCN3c3nnc(-c4ncccc4F)o3)cc12 [Example 2354, (R)-2-(3-fluoropyridin-2-yl)-5-(4-(4-isopropylpyrazolo[1,5-a]pyridin-2-yl)-1,4,6,7-tetrahydro-5H-imidazo[4,5-c]pyridin-5-yl)-1,3,4-oxadiazole] |
| 500 to 1000 nM | CC(C)c1cccn2nc([C@@H]3c4nc[nH]c4CCN3c3nnc(-c4ncccc4F)o3)cc12 [Example 2355, (S)-2-(3-fluoropyridin-2-yl)-5-(4-(4-isopropylpyrazolo[1,5-a]pyridin-2-yl)-1,4,6,7-tetrahydro-5H-imidazo[4,5-c]pyridin-5-yl)-1,3,4-oxadiazole] |
| 500 to 1000 nM | Cc1cccc(-c2nnc(N3CCc4[nH]cnc4[C@H]3c3cc4c(C(F)(F)F)cccn4n3)o2)n1 [Example 2357, (S)-2-(6-methylpyridin-2-yl)-5-(4-(4-(trifluoromethyl)pyrazolo[1,5-a]pyridin-2-yl)-1,4,6,7-tetrahydro-5H-imidazo[4,5-c]pyridin-5-yl)-1,3,4-oxadiazole] |
| > 5000 nM | Cc1cccn2nc([C@H]3c4nc[nH]c4CCN3c3nnc(-c4cccc(F)n4)o3)cc12 [Example 2360, (R)-2-(6-fluoropyridin-2-yl)-5-(4-(4-methylpyrazolo[1,5-a]pyridin-2-yl)-1,4,6,7-tetrahydro-5H-imidazo[4,5-c]pyridin-5-yl)-1,3,4-oxadiazole] |
| 500 to 1000 nM | Fc1cccc(-c2nnc(N3CCc4[nH]cnc4[C@H]3c3cc4c(C(F)(F)F)cccn4n3)o2)n1 [Example 2363, (S)-2-(6-fluoropyridin-2-yl)-5-(4-(4-(trifluoromethyl)pyrazolo[1,5-a]pyridin-2-yl)-1,4,6,7-tetrahydro-5H-imidazo[4,5-c]pyridin-5-yl)-1,3,4-oxadiazole] |
